From PMC6753678, “Fueling Open Innovation for Malaria Transmission-Blocking Drugs: Hundreds of Molecules Targeting Early Parasite Mosquito Stages” (Frontiers in Microbiology, 2019)
pIC50: −log10 of the molar value. Like-named read-outs stand apart in the source and are kept apart here.

Experiments:
[1] = test system: 3D7-strain P. falciparum asexual parasites; assay: P. falciparum asexual growth inhibition assay (Pf GIA); format: cell-based, Plasmodium falciparum; conditions: dose response confirmation; read-out: Pf asexual growth inhibition assays IC50
How it was run: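 Read-out was lactate dehydrogenase activity measured by absorbance at 650 nm after freezing and thawing, against 50 μM chloroquine and DMSO controls. Before that, asexual 3D7 cultures (0.25% parasitemia, 2% hematocrit) had 72 h dose-response compound exposure at 37°C in 5% CO2/5% O2/90% N2; three independent replicates averaged.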

HepG2 cells = assay: HepG2 cytotoxicity assay; conditions: for pIC50: read-out: HepG2 cytotoxicity assay IC50, dose response confirmation; for Pb ODA (this manuscript) HepG2 cytoxicity: HepG2 cytotoxicity listed with the Pb ODA data set (this manuscript)
How it was run: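 HepG2 cells, 2,500 per well in MEM with 10% FBS and 1% NEAA, exposed to compounds for 48 h at 37°C, 5% CO2. Viability read by fluorescence; percent inhibition relative to 50 μM doxorubicin and DMSO controls.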

[2] = test system: P. berghei ookinete development; conditions: for % inhibition, Replicate A / % inhibition, Replicate B: primary screen at 1 μM
[3] = HepG2 values of the three screens unified
[4] = read-out: Pb ODA IC50, this manuscript
[5] = read-out: Pb Ookinete development assay IC50, dose response confirmation
[6] = unified HepG2 value across the three screens
[7] = read-out: Pb ODA (this manuscript) IC50, P. berghei ookinete development assay, this manuscript

SMILES | pIC50 [1] | HepG2 cytoxicity (Pb ODA, this manuscript) (HepG2 cells) | Unified cytotox (HepG2 cells; [3]) | pIC50 (HepG2 cells) | Is compound selective in assay? Pb ODA active? ([2]; 1: YES, 0: NO) | % inhibition, Replicate A [2] | % inhibition, Replicate B [2] | pIC50 [2, 4] | pIC50 [2, 5] | Unified cytotox (HepG2 cells; [6]) | Pb ODA (this manuscript) HepG2 cytoxicity (HepG2 cells) | Is compound selective in assay? Pb ODA active? [2] | pIC50 [2, 7]
CCN(CC)CCCNc1c2ccccc2nc2ccccc12.Cl [TCMDC-125517] | 7.30 | 18.20 µM | 18.20 µM | 4.74 | 1 (1: YES) | 20.29% | 90.60% | 5.79 | 5.79 | – | – | – | –
Cc1c2ccncc2c(C)c2c1[nH]c1ccccc12 [TCMDC-125546] | 5.92 | – | – | 4.82 | 0 (0: NO) | 41.57% | 50.63% | 5.28 | 5.28 | 15.14 µM | – | – | –
CCn1cc(C(=O)O)c(=O)c2cc(F)c(N3CCN(S(=O)(=O)c4ccc(N)cc4)CC3)cc21 [TCMDC-125809] | 5.77 | – | – | 4.00 | 1 (1: YES) | 58.34% | 60.71% | 6.01 | 6.01 | 100.00 µM | – | – | –
O=C(NC(=O)c1ccccc1O)c1ccccc1O [TCMDC-125868] | 5.69 | – | – | 4.00 | 1 (1: YES) | 63.28% | 34.36% | – | 6.34 | 100.00 µM | – | – | –
COc1ccc2nccc(NC(=O)C3CCC(NCc4cnc(SC)c([N+](=O)[O-])c4)CC3)c2n1.Cl (centres unmarked) [TCMDC-131238] | 6.17 | – | – | 4.84 | – | 77.59% | 35.00% | – | 5.62 | – | 14.62 µM | 0 (key: 1: YES; 0: NO) | 5.62
Br.CCCc1cc(C)ccc1OCCCON1C(N)=NC(N)=NC1(C)C [TCMDC-131320] | > 9.70 | 0.0017 µM | 0.0017 µM | 8.77 | 0 (0: NO) | 73.15% | 59.20% | 5.29 | 5.29 | – | – | – | –
C=CCc1cc(OC)ccc1OCCCOc1c(C)nc(N)nc1N.Cl [TCMDC-131358] | > 9.70 | – | – | 6.59 | 0 (0: NO) | 71.96% | 22.95% | 5.63 | 5.63 | 0.26 µM | – | – | –
CCN(CC)c1ccccc1CNC(=O)c1cc(Cl)c(N)cc1OC [TCMDC-131416] | > 9.70 | – | – | 4.38 | 1 (1: YES) | 54.83% | 54.70% | 5.88 | 5.88 | 41.69 µM | – | – | –
CCOC(=O)c1c(-c2ccccc2)nc2c(sc3ccccc32)c1O [TCMDC-131540] | 5.41 | – | – | 4.00 | 1 (1: YES) | 101.19% | 85.53% | 5.88 | 5.88 | 100.00 µM | – | – | –
CC(ON1C(N)=NC(N)=NC1(C)C)c1ccccc1 (centres unmarked) [TCMDC-131596] | 7.85 | 0.0372 µM | 0.0372 µM | 7.43 | 0 (0: NO) | 78.80% | 47.07% | – | 5.28 | – | – | – | –
Br.Cc1ccc(OCCCON2C(=N)N=C(N)NC2(C)C)cc1C [TCMDC-131650] | > 9.70 | – | – | 9.00 | – | 43.37% | 66.90% | – | 5.30 | – | 0.001 µM | 0 (key: 1: YES; 0: NO) | 5.30
Br.CC1(C)N=C(N)N=C(N)N1OCCc1cccc2ccccc12 [TCMDC-131663] | 7.62 | – | – | 9.00 | – | 57.64% | 56.80% | – | 5.57 | – | 0.001 µM | 0 (key: 1: YES; 0: NO) | 5.57
Br.CC1(C)NC(N)=NC(=N)N1OCCSc1ccccc1 [TCMDC-131670] | > 9.70 | – | – | 9.00 | – | 44.97% | 56.76% | – | 5.54 | – | 0.001 µM | 0 (key: 1: YES; 0: NO) | 5.54
Br.CC1(C)NC(N)=NC(=N)N1OCCCOc1cc(Cl)ccc1Cl [TCMDC-131679] | > 9.70 | – | – | 9.00 | – | 77.33% | 60.56% | – | 5.47 | – | 0.001 µM | 0 (key: 1: YES; 0: NO) | 5.47
Br.CC(CON1C(N)=NC(N)=NC1(C)C)c1ccc(Cl)cc1Cl (centres unmarked) [TCMDC-131687] | 7.41 | 0.001 µM | 0.001 µM | 9.00 | 0 (0: NO) | 63.61% | 60.22% | 5.68 | 5.68 | – | – | – | –
CC1(C)N=C(N)N=C(N)N1OCCCc1ccccc1.Cl [TCMDC-131689] | > 9.70 | 0.001 µM | 0.001 µM | 9.00 | 0 (0: NO) | 42.43% | 56.50% | 5.60 | 5.59 | – | – | – | –
Br.COc1ccc(CCCON2C(=N)N=C(N)NC2(C)C)cc1 [TCMDC-131693] | > 9.70 | – | – | 9.00 | – | 23.91% | 55.92% | – | 5.23 | – | 0.001 µM | 0 (key: 1: YES; 0: NO) | 5.23
Br.CC1(C)NC(N)=NC(=N)N1OCCSc1ccc(Cl)c(Cl)c1 [TCMDC-131704] | > 9.70 | – | – | 9.00 | – | 51.68% | 39.02% | – | 5.08 | – | 0.001 µM | 0 (key: 1: YES; 0: NO) | 5.08
Br.CCC(ON1C(N)=NC(N)=NC1(C)C)c1ccc(Cl)cc1 (centres unmarked) [TCMDC-131709] | 8.81 | – | – | 8.29 | – | 60.03% | 57.14% | – | 5.49 | – | 0.00513 µM | 0 (key: 1: YES; 0: NO) | 5.49
Br.CC(CCON1C(N)=NC(N)=NC1(C)C)c1ccc(Cl)cc1 (centres unmarked) [TCMDC-131721] | > 9.70 | – | – | 9.00 | – | 71.36% | 33.21% | – | 5.02 | – | 0.001 µM | 0 (key: 1: YES; 0: NO) | 5.02
Br.COc1ccc(CC(C)CON2C(N)=NC(N)=NC2(C)C)cc1 (centres unmarked) [TCMDC-131722] | > 9.70 | – | – | 9.00 | – | 50.32% | 49.29% | – | 5.31 | – | 0.001 µM | 0 (key: 1: YES; 0: NO) | 5.31
CC1(C)NC(N)=NC(=N)N1OCOc1ccc(Cl)cc1.Cl [TCMDC-131734] | > 9.70 | – | – | 7.12 | – | 89.86% | 40.05% | – | 5.58 | – | 0.0759 µM | 0 (key: 1: YES; 0: NO) | 5.58
Br.CC1(C)NC(N)=NC(=N)N1OCCCOc1ccccc1Cl [TCMDC-131739] | > 9.70 | – | – | 9.00 | – | 73.15% | 48.60% | – | 5.50 | – | 0.001 µM | 0 (key: 1: YES; 0: NO) | 5.50
CCOC(=O)NC1=NC(=N)N(OCCCOc2cc(Cl)c(Cl)cc2Cl)C(C)(C)N1 [TCMDC-131741] | > 9.70 | – | – | 9.00 | – | 60.63% | 47.57% | – | 5.29 | – | 0.001 µM | 0 (key: 1: YES; 0: NO) | 5.29
Br.CC(C)(C)c1ccccc1OCCCON1C(=N)N=C(N)NC1(C)C [TCMDC-131751] | > 9.70 | – | – | 9.00 | – | 62.16% | 60.88% | – | 5.51 | – | 0.001 µM | 0 (key: 1: YES; 0: NO) | 5.51
